# Data published in publication PMC11973282, “RAS70 peptide targets multiforme glioblastoma by binding to the plasma membrane heat shock protein HSP70” (Frontiers in Oncology, 2025).
# Experiments:
# [1] = tested on: C6, GL261, T98G mHsp70-positive tumor cells; assay: Confocal microscopy of peptide binding and internalization; format: cell-based; settings: for internalization/accumulation in tumor cells by confocal microscopy: 75 μg/mL, co-incubation 15, 30 and 60 minutes
# Protocol: The binding of the TKD-sCy5, RAS70-sCy5, and NGL-RGD-sCy5 peptides to tumor cells was visualized using the Olympus FV3000 confocal system (Olympus, Japan). The C6, GL261, T98G, ANI, IBD, TMS cells (0.1×10^6 mL^-1 cells) were placed on Nunc™ Lab-Tek™ Chamber Slide System (Thermo Fisher Scientific, USA) and kept overnight. For primary GBM cells the chambers were pre-coated with Matrigel (0.2 mg/mL, Corning, New York, USA) to increase adhesion properties. The cells were incubated with peptides at a concentration of 75 μg/mL for 15, 30, and 60 minutes on ice in the dark. After the incubation cells were washed with PBS, fixed in a 10% formalin solution (Sigma-Aldrich, Burlington, USA), and mounted using a mounting medium containing DAPI (Ibidi, Graefelfing, Germany). Unstained cells were used as controls.
# To study the mechanisms of peptide internalization, cells were incubated with peptides for 30 minutes in 37°C in a 5% CO2, washed with PBS, fixed in a 10% formalin solution (Sigma-Aldrich, USA), permeabilized with 0,1% Triton-X100 solution (Servicebio, Wuhan, China), blocked with 5% bovine serum albumin solution and incubated overnight with Alexa Fluor® 488 Anti-Rab5 antibody [EPR21801] (#ab270094, abcam, USA), and with Alexa Fluor® 488 Anti-LAMP1 antibody [EPR24395-31] (#281758, abcam, USA). After 24 hours cells were washed with 0,1% Tween-20 solution (Sigma-Aldrich, Burlington, USA) and mounted using a mounting medium containing DAPI (Ibidi, Graefelfing, Germany). To study the co-localization of the peptide with endolysosomal markers the raw confocal images (n = 10 for each group) were obtained in a 3-channel, 1024 × 1024 pixel format. Colocalization coefficient (τ-Kendall rank correlation value) was computed with the Coloc2 plugin and ImageJ 1.54g ([32]).
# The next step was co-incubation of the target peptide RAS70 labeled with fluorescent dye Cy5 with tumor cells for 15, 30 and 60 minutes, followed by confocal microscopy analysis. […] To exclude processes of active internalization of the peptide, co-incubation of the cells on ice at +4°C was performed. […] Next, we evaluated the targeting properties of RAS70 on primary glioblastoma cells (ANI, IBD, TMS) obtained from neuro-oncological patients ([3]) that were additionally characterized for mHsp70, SOX2, NESTIN, GFAP, β3-Tubulin, Ki-67, and CD133 ( Figures 3A–I ).
# [2] = tested on: human U87 glioblastoma cells; assay: Flow cytometry of FITC-labeled peptide internalization, 24 h (also with antibody pre-treatment); format: cell-based; settings: for peptide internalization after pre-treatment with anti-Hsp70 antibodies: cells pre-treated with anti-Hsp70 mAbs SPA-810, SPA-815 (1:250); for peptide uptake after pre-treatment with both anti-Hsp70 and anti-αvβ3/-αvβ5 mAbs: combination of antibodies; for mean fluorescence intensity (MFI), internalization of FITC-labeled peptide: U87, 50 μg/mL, 24 hours, flow cytometry, M ± SE, 3 independent experiments
# Protocol: (§1) The binding of the TKD-sCy5, RAS70-sCy5, and NGL-RGD-sCy5 peptides were analyzed using a CytoFLEX flow cytometer (Beckman Coulter, USA). A single cell suspension of C6, GL261, T98G, U87, U251, ANI, IBD, TMS (0.15×10^6 cells in mL^-1) were incubated for 30 minutes on ice in the dark with peptides in concentration of 75 μg/mL, and then washed with cold PBS solution. Cells without peptides were used as controls. To evaluate incorporation of the fluorescently-labeled peptides for longer period of co-incubation of 24 h cells (C6, GL261, U87, U251) were treated with FITC-labeled peptides, then washed with PBS and assessed on a CytoFLEX flow cytometer (Beckman Coulter, USA). Following FACS analysis cell pellet was further evaluated employing confocal microscopy Leica TCS SP8 (Leica Microsystems, Germany).
# (§2) The incorporation of peptides over longer periods of co-incubation with brain tumor cells was additionally analyzed using a Cytomics FC500 flow cytometer (BeckmanCoulter, USA). Tumor cells (C6, GL261, U87, U251) were incubated with peptides (concentration 50 μg/mL) for 24 hours, washed with PBS. Internalization of FITC-labeled peptides was assessed by determining the mean fluorescence intensity (MFI). According to the study data ( Figure 6A ), it was shown that TKD peptide accumulated in all cell lines – 2120 ± 152 (C6), 2099 ± 107 (GL261), 2145 ± 189 (U87), 2373 ± 201 (U251) compared to the control scramble peptide (NGL) – 378 ± 48 (C6), 344 ± 57 (GL261), 301 ± 66 (U87), 313 ± 56 (U251) (P<0.001). […] Following FACS analysis the cell pellet was collected and evaluated for peptides cell uptake employing confocal microscopy ( Figure 6B ). The obtained microscopy data confirmed higher accumulation of RAS70 peptide in studied cell lines as compared to TKD or scramble peptides.
# (§3) Figure 6 Evaluation of the mHsp70-targeting peptides internalization by glioma cells. (A) Flow cytometric evaluation of FITC-labeled peptide accumulation in tumor cell lines (rat glioma C6, mouse glioma GL261, human glioblastoma U87 and U251) after co-incubation for 24 hours. […] (B) Confocal microscopy assessment of FITC-labeled peptide accumulation in tumor cell lines (rat glioma C6, mouse glioma GL261, human glioblastoma U87 and U251) after co-incubation for 24 hours. […] (C) Analysis of the peptides uptake by human U87 glioblastoma cells following co-incubation for 24 hours.
# To evaluate the mHsp70-mediated uptake of the peptides prior to co-incubation with either TKD or RAS70 peptides cells were pre-treated with anti-Hsp70 antibodies (SPA-810, SPA-815) that are known to target the membrane-bound chaperone on cancer cells ([37]). […] The tripeptide RGD (Arg-Gly-Asp) motif is known to bind to integrins, including αvβ3 and αvβ5 expressed on brain tumor cells and tumor endothelial cells ([38], [39]). […] As expected, we observed the decrease of NGL-RGD and RAS70 internalization by tumor cells but not of TKD or NGL peptides ( Figure 6C ).
# [3] = tested on: U87 cells (lower chamber; HUVEC and astrocytes barrier); assay: Transwell BBB model, peptide passage and accumulation in tumor cells (also with antibody pre-treatment); format: in vitro ADME, human; settings: transwell BBB model: HUVEC (5×10^5) and astrocytes (5×10^5) in upper chamber, U87 (1×10^4) in lower chamber; FITC-labeled peptide; 36 hours; confocal microscopy count; M ± SE, 3 independent experiments
# From the text: Fluorescently labeled cells were counted in the lower chamber.
# Next, we assessed the mHsp70- and integrin (αvβ3, αvβ5)-mediated penetration of the TKD and RAS70 via the BBB ( Figure 9B ). […] When anti-αvβ3 and anti-αvβ5 mAbs were employed, we detected the decrease of NGL-RGD and RAS70 penetration via the BBB but not the NGL and TKD peptides.
# [4] = tested on: mHsp70-negative dermal fibroblasts; assay: Flow cytometry of FITC-labeled peptide internalization, negative control cells; format: cell-based
# C6 (rat glioma) cells = assay: Flow cytometry of FITC-labeled peptide internalization, 24 h; format: cell-based; settings: 50 μg/mL, M ± SE, 3 independent experiments
# Protocol: as §1, §2, §3
SMILES,"co-localization with early endosome (Rab5) and lysosome (LAMP-1) markers ([1]; 30 minutes at 37°C, confocal microscopy)",internalization/accumulation in tumor cells by confocal microscopy ([1]; Cy5-labeled peptide),"subcellular localization ([1]; Cy5-labeled peptide, confocal microscopy)","penetration into cells on ice ([1]; co-incubation on ice at +4°C to exclude active internalization, data not shown)","peptide internalization after pre-treatment with anti-Hsp70 antibodies ([2]; U87, 24 hours)","peptide internalization after pre-treatment with anti-αvβ3 and -αvβ5 antibodies ([2]; U87, 24 hours, cells pre-treated with anti-αvβ3 (LM609) and anti-αvβ5 (P1F6) mAbs (1:200))","peptide uptake after pre-treatment with both anti-Hsp70 and anti-αvβ3/-αvβ5 mAbs ([2]; U87, 24 hours)","mean fluorescence intensity (MFI), internalization of FITC-labeled peptide [2]",fluorescently labeled tumor cells in the lower chamber [3] [cells],accumulation of peptide in mHsp70-negative cells [4],"mean fluorescence intensity (MFI), internalization of FITC-labeled peptide (C6 (rat glioma) cells)"
CC(C)C[C@H](NC(=O)[C@H](CC(C)C)NC(=O)[C@H](CC(N)=O)NC(=O)[C@H](CC(N)=O)NC(=O)[C@H](CC(=O)O)NC(=O)[C@H](CCCCN)NC(=O)[C@@H](N)[C@@H](C)O)C(=O)NCC(=O)N[C@@H](CCCNC(=N)N)C(=O)N[C@@H](Cc1ccccc1)C(=O)N[C@@H](CCC(=O)O)C(=O)N[C@@H](CC(C)C)C(=O)N[C@@H](CO)C(=O)NCC(=O)NCCC(=O)N[C@@H](CCCNC(=N)N)C(=O)NCC(=O)N[C@@H](CC(=O)O)C(=O)O [RAS70],only partially penetrated the cell via the endolysosomal pathway,higher accumulation of the peptide was detected as compared to TKD or control,predominantly localized in the cytoplasm of cells without penetrating into the nuclei,significant decrease in the penetration,significant decrease,decrease,significant abrogation,2999 ± 209,578 ± 67,did not detect the accumulation,2671 ± 201
CC(C)C[C@H](NC(=O)[C@H](CC(C)C)NC(=O)[C@H](CC(N)=O)NC(=O)[C@H](CC(N)=O)NC(=O)[C@H](CC(=O)O)NC(=O)[C@H](CCCCN)NC(=O)[C@@H](N)[C@@H](C)O)C(=O)NCC(=O)N[C@@H](CCCNC(=N)N)C(=O)N[C@@H](Cc1ccccc1)C(=O)N[C@@H](CCC(=O)O)C(=O)N[C@@H](CC(C)C)C(=O)N[C@@H](CO)C(=O)NCC(=O)O [TKD],,"internalization of the TKD peptide by tumor cells was noted, reaching maximum absorption of the peptide after 60 minutes",,,significant decrease,,significant abrogation,2145 ± 189,337 ± 38,did not detect the accumulation,2120 ± 152
